Test results published in patent publication US8669250B2, “Derivatives of aryl-{4-halogeno-4-[aminomethyl]-piperidin-1-yl}-methanone, their method of preparation and their use as medicinal products” (Pierre Fabre Medicament, priority 2009, dated 2014).
Entries after “also recorded” stand apart in the source; their conditions may differ.

What was measured:
5-HT1A receptor = target: T1, 5-HT1A receptor (Rattus norvegicus, UniProt P19327); test: Affinity for 5-HT1A receptors, shift of (3H)8-OH-DPAT in rat cerebral cortex; assay type: binding; settings: mean of at least 3 experiments, read-out: 5-HT1A affinity (pKi) (converted)
T1 construct: the cerebral cortex is sampled and homogenized in 20 volumes of buffer; from tissue; host or cells: rat cerebral cortex homogenate (membranes)
T1 sequence (P19327 1-422): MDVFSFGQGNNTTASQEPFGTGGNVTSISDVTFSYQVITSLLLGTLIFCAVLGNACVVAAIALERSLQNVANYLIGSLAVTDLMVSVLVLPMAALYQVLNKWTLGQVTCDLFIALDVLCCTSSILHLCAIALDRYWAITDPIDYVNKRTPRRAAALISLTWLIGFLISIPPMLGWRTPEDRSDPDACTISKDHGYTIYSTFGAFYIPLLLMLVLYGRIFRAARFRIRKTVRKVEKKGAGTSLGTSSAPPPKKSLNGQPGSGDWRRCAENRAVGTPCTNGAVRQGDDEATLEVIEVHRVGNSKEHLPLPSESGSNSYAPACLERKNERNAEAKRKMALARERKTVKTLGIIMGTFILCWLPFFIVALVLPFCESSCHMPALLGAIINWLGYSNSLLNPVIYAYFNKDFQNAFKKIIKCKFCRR
Description: (§1) The affinity of the compounds of the invention for the rat 5-HT1A receptor was measured conventionally from competitive experiments with a radiolabelled 5-HT1A agonist. […] This test is widely used since it is predictive of antidepressant action in man. Analgesic activity was determined after intra-peritoneal administration to rats, both with a physiological pain model and a pathological pain model. By physiological pain, the inventors designate pain whose origin is a lesion and/or organic ill-function such as pain caused by excessive nociceptive stimuli.
The in vitro affinity of the compounds of the invention for the 5-HT1A receptors was determined by measuring the shift of (^3H)8-OH-DPAT (agonist of 5HT1A receptors labelled with tritium, TRK 850; 160-240 Ci/mmole).
The study on binding with the 5-HT1A receptor was conducted as described in Naunyn-Schmiedeberg's Arch. Pharmaco. 1991, 343, 106. For these experiments, rat cerebral cortices were used. After unfreezing the brain in Tris-HCl buffer 50 mmol, pH=7.40 at 25° C., the cerebral cortex is sampled and homogenized in 20 volumes of buffer held at 4° C. The homogenate is centrifuged at 39000 g for 10 min, the centrifuge residue is suspended in the same volume of buffer and again centrifuged. After further suspension under the same conditions, the homogenate is incubated for 10 min at 37° C. then again centrifuged. The final residue is suspended in cold reaction buffer Tris-HCl 50 mmol, pH=7.40 at 25° C. containing […] of pargyline, 4 mmol of CaCl2 and 0.10% ascorbic acid. The final concentration of the tissue in the incubation medium is 10 mg/tube.
The reaction tubes contain 0.10 mL of (^3H)8-OH-DPAT (final […]), 0.10 mL of product to be tested 6-7 concentrations and 0.80 mL of tissue. Non-specific binding is defined using […] of 5-HT. The reaction tubes are incubated at 23° C. for 30 min then their content is rapidly vacuum filtered through Whatman GF/B filters, the tubes are rinsed with 2×5 mL of Tris-HCl buffer 50 mmol, pH=7.4 at 25° C. Radioactivity is collected on the filter and analyzed by liquid scintillation by adding 4 mL of scintillating liquid (Emulsifier Safe, Packard). All experiments were performed in triplicate.
The inhibition constants (Ki) of the products of the invention are estimated from shift experiments using the non-linear regression programme RADLIG version 4 by EBDA (Equilibrium Binding Data Analysis Biosoft, Cambridge, UK, Mc Pherson, 1985). The dissociation constant of the radioactive ligand used for calculations is […] for (^3H)8-OH-DPAT. The values of pKi (−log Ki) are given in the form mean±SEM of at least 3 experiments.

[1] = test system: rats, forced swimming immobility; test: Forced swimming test (antidepressant activity); assay type: in vivo; settings: rat, oral
Description: as §1
The rats (Male Sprague Dawley rats (ICO: OFA SD [IOPS], Iffa Credo, France), are placed in a cylinder (45 cm high and 20 cm in diameter) filled with water at 25° C.±0.5 up to a height of 17 cm. This depth allows rats to swim or float without their tail touching the bottom of the cylinder.
24 h before the test day, the rats are placed in the cylinder for 15 min, a lapse of time after which they no longer attempt to escape and remain immobile. On the test day the animals are replaced in the cylinder and the duration of animal immobility is measured by direct observation followed by verification of an audiovisual recording for 5 min. The products of the invention are administered by oral route 60 min before the test. A rat is considered to be immobile if it allows itself to float and only makes small movements to remain on the surface. Two rats are observed at the same time.
(§2) Quantification of the effect of the compounds of the invention on the forced swimming tests and on the formol test is conducted by one-factor variance analysis between groups (ANOVA analysis) followed by a multiple comparison test (Dunnett's test) versus control animals. The ED50 value is calculated using Litchfield and Wilcoxon analysis from the percentage of responding animals.

[2] = test system: rats, formol-induced pain; test: Formol test (analgesic activity, physiological pain); assay type: in vivo; settings: rat, i.p.
From the text: (§3) The physiological pain model chosen by the inventors to determine the analgesic activity of the compounds of the invention uses excess nociceptive stimuli (injection of formol) to cause a painful sensation in animal (Eur. J. Pharmacol. 2001, 421, 109). For the so-called pathological pain model in animal, the inventors chose to use pain induced by the injection of a cytotoxic agent such as oxaliplatine (Eur. J. Cancer 2007, 2658).
The rats (Male Sprague Dawley rats (ICO: OFA SD [IOPS], Iffa Credo, France) are placed in plexiglass observation boxes above an angled mirror so as to facilitate observation of the hind paws. After thirty minutes of habituation, the animals are given an injection of formol diluted to 2.5% on the plantar surface of the right hind paw. The injection of formol produces behavioural responses which occur in two phases:
an acute phase, from 0 to 5 min after injection of the formol, corresponding to stimulation of receptors specialized in the transmission of pain messages to the spinal cord.
a late phase which occurs 20 to 30 min after the injection. This phase corresponds to stimulation of receptors by inflammatory mediators and/or to hyper-excitability of the dorsal horn induced during the first phase. This late phase therefore involves central sensitization.
For the study of the compounds of the invention we selected two expressions of painful behaviour and chose two periods of observation which correspond to the two pain phases (i.e. 0-5 min and 22.5-27.5 min). During these two 5-min periods the animals are observed every 30 seconds and are given scores for the following behaviours: paw licking or not of the injected paw, and lifting or non-lifting of the injected paw. Ten observations give a maximum score of 10 for each parameter for each of the 2 phases. The products of the invention are administered via intraperitoneal route 15 min before the injection of formol.
as §2
For this test, the animals are observed every 30 seconds during two periods of 5 min. The following behaviours are noted: paw licking or not of the injected paw, and paw lifting or not of the injected paw. Ten observations give a maximum score of 10 for each parameter for each of the 2 phases, measuring either paw lifting or paw licking. This test was also performed by comparison with administration of the vehicle (veh) alone.

[3] = test system: rats, oxaliplatine-induced allodynia; test: Oxaliplatine test, von Frey (analgesic activity, pathological pain); assay type: in vivo; settings: rat, i.p.
From the text: as §3
The rats (Male Sprague Dawley rats (ICO: OFA SD [IOPS], Iffa Credo, France) are tested a first time on the Friday to determine their mechanical sensitivity threshold (von Frey test). They are then given an intra-peritoneal injection (i.p.) of oxaliplatine (anticancer treatment causing neuropathic pain in patients) at a dose of 8 mg/kg. This dose in rat induces neuropathy which translates as mechanical hypersensitivity (allodynia) which develops 3 days after the injection with a peak on day five. For the study of the compounds of the invention, the animals are re-tested on day five, 15 min after administration of the compound via intra-peritoneal route.
The pressure force is then measured (in g) at which withdrawal of the paw of the animals is observed.

SMILES: O=C(c1ccc(F)c(Cl)c1)N1CCC(F)(CNCC2CNc3ccccc3O2)CC1 (single isomer, unassigned; (-)) [Compound 1a1, (−)-(3-Chloro-4-fluoro-phenyl)-{4-fluoro-4-[(3,4-dihydro-2H-1,4-benzoxazine-2-methanamino)-methyl]-pipéridin-1-yl}-methanone]
- Ki (5-HT1A receptor): 1.02 nM
- dose on and after which none of the animals remains immobile [1]: ≥ 10 mg/kg
- ED50 ([1]; 60 min before test, read-out: ED50, reduction of immobility time): 0.08 mg/kg
- effect on animal immobility time ([1]; dose range): reducing the animal's immobility time in dose-dependent fashion
- ED50 ([2]; ip, 15 min before formol, read-out: ED50, inhibition of paw lifting): 0.05 mg/kg
- effect on paw lifting and paw licking, in words ([2]; acute and late phases): dose-dependent inhibition of the 2 measured parameters; also recorded: Full analgesia is obtained irrespective of the pain phase
- dose on and after which full analgesia is obtained ([3]; day five after oxaliplatine, von Frey): ≥ 0.04 mg/kg
- effect on allodynia, in words ([3]; dose range): dose-dependent inhibition of allodynia
